Consider 1 cell line from the supplement of paper PMC10307832.

Assay in all cases: relative viability (nuclei count vs DMSO), 5 days (fraction); higher = more cells survive
Compound in the assay “Cediranib + Pemetrexed”: COc1cc2c(Oc3ccc4[nH]c(C)cc4c3F)ncnc2cc1OCCCN1CCCC1 [Cediranib] + Nc1nc2[nH]cc(CCc3ccc(C(=O)N[C@@H](CCC(=O)O)C(=O)O)cc3)c2c(=O)[nH]1 [Pemetrexed] (partner 0.2 µM)
A digest of the protocol: (§1)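 Lung cancer cell lines in 1536-well plates got either a single drug or a fixed anchor-drug dose together with five library-drug doses (not always all listed) in √10 steps, by pin tool, on the day after seeding. Nuclei were counted after 5 days, and relative viability is the treated-to-vehicle ratio of nuclei counts. Values are medians of duplicate plates.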

Compound in the assay “Decitabine + Foretinib”: Nc1ncn([C@H]2C[C@H](O)[C@@H](CO)O2)c(=O)n1 [Decitabine] + COc1cc2c(Oc3ccc(NC(=O)C4(C(=O)Nc5ccc(F)cc5)CC4)cc3F)ccnc2cc1OCCCN1CCOCC1 [Foretinib] (partner 0.25 µM)
A digest of the protocol: as §1

Compound in assay [1]: O=C(C[C@H]1NCCC[C@@H]1O)Cn1cnc2cc(Br)c(Cl)cc2c1=O (racemic) [Halofuginone] + CC(=O)Nc1cccc(-n2c(=O)n(C3CC3)c(=O)c3c(Nc4ccc(I)cc4F)n(C)c(=O)c(C)c32)c1 [Trametinib] (partner 0.02 µM)
Summed up: as §1

Compound in the assay “Decitabine + Phenformin”: Nc1ncn([C@H]2C[C@H](O)[C@@H](CO)O2)c(=O)n1 [Decitabine] + N=C(N)NC(=N)NCCc1ccccc1 [Phenformin] (partner 250 µM)
A digest of the protocol: as §1

Take UMC-11: the relative viability was determined as 0.848 with Cediranib + Pemetrexed (first compound 0.04 µM); 0.752 in the assay with Cediranib + Pemetrexed (first compound 0.1265 µM); 0.738 with Cediranib + Pemetrexed (first compound 0.4 µM); 0.824 with Cediranib + Pemetrexed (first compound 1.265 µM); 0.764 with Cediranib + Pemetrexed (first compound 4 µM); 0.906 with Decitabine + Foretinib (first compound 0.04 µM). In addition, the relative viability was found to be 0.79 with Decitabine + Foretinib (first compound 0.1265 µM); 0.511 with Decitabine + Foretinib (first compound 0.4 µM); 0.399 in the assay with Decitabine + Foretinib (first compound 1.265 µM); 0.372 with Decitabine + Foretinib (first compound 4 µM); 0.8 in assay [1] (first compound 0.001 µM); 0.791 in assay [1] (first compound 0.003162 µM). The relative viability was 0.782 in assay [1] (first compound 0.01 µM); 0.603 in assay [1] (first compound 0.03162 µM); 0.456 in assay [1] (first compound 0.1 µM); 0.31 in the assay with Decitabine + Phenformin (first compound 0.04 µM); 0.32 with Decitabine + Phenformin (first compound 0.1265 µM); 0.308 in the assay with Decitabine + Phenformin (first compound 0.4 µM). In addition, the values for the relative viability with Decitabine + Phenformin (first compound 1.265 µM) and in the assay with Decitabine + Phenformin (first compound 4 µM) were 0.266 and 0.274, respectively.
